# pIC50: −log10 of the molar value.
# Key:
# HepG2 = test: Cytotoxicity against human HepG2 cells assessed as reduction in cell viability incubated for 48 hrs by MTT assay; type: functional, cell-based; conditions: HepG2, 48 h
# ECa-109 cell line = test: Cytotoxicity against human ECa-109 cells assessed as reduction in cell viability incubated for 48 hrs by MTT assay; type: functional, cell-based; conditions: ECa-109, 48 h
# SGC-7901 = test: Cytotoxicity against human SGC-7901 cells assessed as reduction in cell viability incubated for 48 hrs by MTT assay; type: functional, cell-based; conditions: SGC-7901, 48 h
# HeLa = test: Cytotoxicity against human HeLa cells assessed as reduction in cell viability incubated for 48 hrs by MTT assay; type: functional, cell-based
# L02 = test: Cytotoxicity against human HL7702 cells assessed as reduction in cell viability incubated for 48 hrs by MTT assay; type: ADME, cell-based; conditions: L02, 48 h
Structure (SMILES),pIC50 (HepG2),pIC50 (ECa-109 cell line),pIC50 (SGC-7901),pIC50 (HeLa),pIC50 (L02)
C[n+]1nn(Cc2ccccc2Cl)c2c1C[C@]1(C)[C@H]3CC[C@@H]4[C@H]5[C@H]6OC[C@@]5(CCC6(C)C)CC[C@@]4(C)[C@]3(C)CC[C@H]1C2(C)C,5.52,5.70,5.65,5.57,5.89
CC1(C)CC[C@]23CC[C@]4(C)[C@H](CC[C@@H]5[C@@]6(C)Cc7nnn(CC(c8ccccc8)c8ccccc8)c7C(C)(C)[C@@H]6CC[C@]54C)[C@H]2[C@H]1OC3,4.27,4.31,4.32,4.36,4.39
COc1ccc(CCn2n[n+](C)c3c2C(C)(C)[C@@H]2CC[C@]4(C)[C@H](CC[C@@H]5[C@H]6[C@H]7OC[C@@]6(CCC7(C)C)CC[C@]54C)[C@@]2(C)C3)cc1,5.54,5.71,5.62,5.55,5.68
CC1(C)CC[C@]23CC[C@]4(C)[C@H](CC[C@@H]5[C@@]6(C)Cc7nnn(Cc8ccc(F)cc8)c7C(C)(C)[C@@H]6CC[C@]54C)[C@H]2[C@H]1OC3,4.32,4.16,< 4.10,< 4.10,4.38
COc1ccc(CCn2nnc3c2C(C)(C)[C@@H]2CC[C@]4(C)[C@H](CC[C@@H]5[C@H]6[C@H]7OC[C@@]6(CCC7(C)C)CC[C@]54C)[C@@]2(C)C3)cc1,4.44,4.29,4.34,4.37,4.41
COc1cccc(CCn2nnc3c2C(C)(C)[C@@H]2CC[C@]4(C)[C@H](CC[C@@H]5[C@H]6[C@H]7OC[C@@]6(CCC7(C)C)CC[C@]54C)[C@@]2(C)C3)c1,4.50,4.59,4.40,4.63,4.68
CC1(C)CC[C@]23CC[C@]4(C)[C@H](CC[C@@H]5[C@@]6(C)CC[C@H](O)C(C)(C)[C@@H]6CC[C@]54C)[C@H]2[C@H]1OC3 [ALLOBETULIN],4.25,4.32,4.20,4.34,4.37
COc1cc(Cn2n[n+](C)c3c2C(C)(C)[C@@H]2CC[C@]4(C)[C@H](CC[C@@H]5[C@H]6[C@H]7OC[C@@]6(CCC7(C)C)CC[C@]54C)[C@@]2(C)C3)cc(OC)c1OC,5.52,5.47,5.25,5.42,5.42
CC1(C)CC[C@]23CC[C@]4(C)[C@H](CC[C@@H]5[C@@]6(C)Cc7nnn(Cc8cccc(Cl)c8)c7C(C)(C)[C@@H]6CC[C@]54C)[C@H]2[C@H]1OC3,4.51,4.44,4.50,4.46,4.58
C[n+]1nn(Cc2ccc(F)cc2)c2c1C[C@]1(C)[C@H]3CC[C@@H]4[C@H]5[C@H]6OC[C@@]5(CCC6(C)C)CC[C@@]4(C)[C@]3(C)CC[C@H]1C2(C)C,5.54,5.51,5.52,5.52,5.66
CC1(C)CC[C@]23CC[C@]4(C)[C@H](CC[C@@H]5[C@@]6(C)Cc7nnn(Cc8ccccc8)c7C(C)(C)[C@@H]6CC[C@]54C)[C@H]2[C@H]1OC3,4.23,4.27,4.25,< 4.10,4.41
COc1cccc(Cn2n[n+](C)c3c2C(C)(C)[C@@H]2CC[C@]4(C)[C@H](CC[C@@H]5[C@H]6[C@H]7OC[C@@]6(CCC7(C)C)CC[C@]54C)[C@@]2(C)C3)c1,5.66,5.55,5.74,5.63,5.76
COc1ccc(Cn2n[n+](C)c3c2C(C)(C)[C@@H]2CC[C@]4(C)[C@H](CC[C@@H]5[C@H]6[C@H]7OC[C@@]6(CCC7(C)C)CC[C@]54C)[C@@]2(C)C3)cc1,5.54,5.56,5.70,5.61,5.65
CCCCn1nnc2c1C(C)(C)[C@@H]1CC[C@]3(C)[C@H](CC[C@@H]4[C@H]5[C@H]6OC[C@@]5(CCC6(C)C)CC[C@]43C)[C@@]1(C)C2,4.97,4.98,5.18,5.20,5.10
COc1ccc(Cn2nnc3c2C(C)(C)[C@@H]2CC[C@]4(C)[C@H](CC[C@@H]5[C@H]6[C@H]7OC[C@@]6(CCC7(C)C)CC[C@]54C)[C@@]2(C)C3)cc1,4.86,4.76,4.77,4.89,4.95

# Reference: ChEMBL document CHEMBL4706545, “Antiproliferative effect of mitochondria-targeting allobetulin 1,2,3-triazolium salt derivatives and their mechanism of inducing apoptosis of cancer cells” (Eur J Med Chem, 2020)
